Laboratory results from US8686113B2 (priority 2009, dated 2014).
≈ marks a conversion by molar mass, not a printed value. Like-named read-outs stand apart in the source and are kept apart here. Non-standard residues stand in square brackets, D forms with d. Residues, ends and D or L forms follow the SMILES beside them. Hyp = O=C(O)[C@@H]1C[C@@H](O)CN1; Tle = CC(C)(C)[C@H](N)C(=O)O; Orn = NCCC[C@H](N)C(=O)O

Legend:
[1] = 25% aqueous mouse serum, 37° C., 75 μg/mL peptide
[2] = mouse, serum
Protocol: For this, the peptides and peptidomimetics were dissolved in water, mouse serum was added and the peptide concentration was adjusted to 75 μg/mL. While shaking continuously, the mixture was incubated at 37° C. After 0, 30, 60, 120, 240 and 360 minutes, in each case an aliquot was taken and mixed with 15% aqueous trichloroacetic acid (Carl Roth GmbH & Co. KG; Karlsruhe, Germany). After incubation on ice for a further 10 minutes, the precipitated serum proteins were centrifuged off (5 min, 13400 rpm, MiniSpin, Eppendorf AG, Hamburg, Germany). The supernatant was removed, neutralized with 1 mol/L aqueous sodium hydroxide solution (Fluke Chemie GmbH, Buchs, Switzerland) and stored at −20° C. until analysis.
The supernatants were analyzed by RP-HPLC with a linear acetonitrile gradient (Biosolve BV, Valkenswaard, The Netherlands) in the presence of 0.1% trifluoroacetic acid (TFA, UV-grade, Fluka Chemie GmbH, Buchs, Switzerland) as ion-pairing reagent. The fractions were co-crystallized with α-cyanohydroxycinnamic acid (Bruker Daltonik GmbH; Bremen, Germany) as matrix (5.3 mg/mL in 50% acetonitrile in 0.1% aqueous TFA) and were analyzed with a tandem mass spectrometer (MALDI-TOF/TOF-MS, 4700 Proteomics Analyzer; Applied Biosystems GmbH, Weiterstadt, Germany) in the positive-ion reflector mode. The proportion of intact peptides and their degradation products or metabolites could thus be identified and quantified at the individual time points. The control used was 25% aqueous mouse serum, which was analyzed in parallel for the same time intervals.

[3] = test system: bacterial proteases (E. coli BL21 A1 lysate); assay: Stability against bacterial proteases in E. coli lysate; format: in vitro ADME; conditions: E. coli lysate with 0.5 mg/mL protein concentration, 37° C.
Protocol: (§1) For the bacterial lysate, 500 mL of nutrient broth (Carl Roth GmbH+Co. KG, Karlsruhe) was inoculated with E. coli BL21 A1 and incubated overnight at 37° C. 2×250 mL bacterial suspension were centrifuged for 25 min at 5000 rpm and 4° C. in a Beckman Avanti™ J-20-XP centrifuge with JLA-10.500 rotor (Beckman Coulter, Fullerton, U.S.A.). The pellets were each suspended in 30 mL PBS (pH 7.4) and centrifuged again in a Beckman Allegra™ 2IR centrifuge (Beckman Coulter, Fullerton, U.S.A.). The pellets were each suspended in 10 mL PBS and were disrupted with ultrasound (Vibra-cell™ microtip, Fisher Bioblock Scientific, Illkirch, France) 2×5 min (750 W; amplitude 40%; 2 s on/3 s off) on ice. The bacterial lysates were combined and 1 mL aliquots were centrifuged at 15400 rpm for 20 min at 4° C. (Beckman Allegra™). The supernatants were removed and stored at −20° C. The protein content of the bacterial lysate was determined by protein determination according to Bradford.
(§2) A solution of 0.15 μg/mL peptide in bacterial lysate with protein content of 1.5 mg/mL or 0.5 mg/mL was incubated at 37° C. After 0, 30, 60, 120, 240 or 360 min, 200 μL was taken from each and the proteins were precipitated with 50 μL of 15% trichloroacetic acid. Then it was incubated for 10 min at 4° C. and then centrifuged for 5 min at 13000 rpm in a Minispin desktop centrifuge. 210 μL was taken from the supernatant and neutralized with 1 mol/L sodium hydroxide solution. The intact peptide and the degradation products were analyzed by HPLC. 60 μL of 3% aqueous acetonitrile with 0.1% trifluoroacetic acid (TFA) was added to the solution and 250 μL of the mixture was injected. After chromatographic separation, the constituents were identified by MALDI-TOF-MS,
(§3) In order to investigate the stability against bacterial proteases, a lysate was prepared from an overnight culture of E. coli BL21 A1 and the peptides were incubated in it. Using Bradford protein determination, the protein concentration was adjusted to 0.5 or 1.5 mg/mL.

[4] = test system: Escherichia coli DSM 10233
Protocol: (§4) The minimum inhibitory concentrations (MIC) of the antimicrobial peptides and peptide derivatives were determined in microdilution assays. These used a continuous peptide dilution in sterile flat-bottomed 96-well microtiter plates (polystyrene, Greiner Bio-One GmbH, Frickenhausen, Germany) and a total volume of 100 μL per well. The aqueous peptide or peptidomimetic solutions were diluted with 1% TSB water, to obtain a final concentration of 256 μg/mL. 50 μL of the peptide or peptidomimetic solution was pipetted into the first well of each series and stirred. From this solution, 50 μL was transferred to the second well, stirred and again 50 μL was transferred to the next well, and so on. A double dilution series is obtained, beginning at 256 μg/mL in the first well to 125 ng/mL in the twelfth well. The bacteria, e.g. E. coli BL21 A1, were cultured overnight at 37° C. in nutrient broth (NB, Carl Roth GmbH+Co. KG, Karlsruhe, Germany). 50 μL of a 5×10^6 bacteria/mL suspension in 1% TSB was added to each well of the microtiter plate and thus a final concentration of the peptides or peptidomimetics from 128 μg/mL (well 1) to 62.5 ng/mL (well 12) was established in each series. The plates were incubated at 37° C. for 20 h and then the absorption was measured at 595 nm with a TECAN microtiter plate spectrophotometer (Tecan Trading AG, Mannedorf, Switzerland). The MIC values of all peptides and peptidomimetics were determined in triplicate. Sterile water was used as negative control.
(§5) The peptides shown in Table 8 were investigated for their MIC against pathogenic bacteria such as E. coli DSM 10233, K. pneumoniae DSM 681 and P. aeruginosa DSM 3227.

[5] = test system: Pseudomonas aeruginosa DSM 3227
Protocol: as §4, §5

[6] = test system: Klebsiella pneumoniae DSM 681
Protocol: as §4, §5

[7] = Stability against bacterial proteases in E. coli lysate; format: in vitro ADME; conditions: E. coli lysate with 0.5 mg/mL protein concentration; for remaining at 4 h, 0.15 μg/mL: E. coli BL21 A1 lysate (bacterial proteases), pH 7.4, read-out: percentage printed under half-life >240 min (peptide remaining)
Protocol: as §1, §2, §3

M. luteus 10240 = assay: Growth inhibition assay (microdilution MIC); format: cell-based, Micrococcus luteus; conditions: 10240, 20 h
Summary of the method: (§6)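 Broth microdilution in 1% TSB with twofold peptide series, final 128 μg/mL to 62.5 ng/mL, against 5×10^6 bacteria/mL stock suspension added 1:1. Incubated 20 h at 37 °C, growth read by absorbance at 595 nm; MIC is the lowest concentration with no growth, determined in triplicate.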

E. coli BL21 A1 = format: cell-based, Escherichia coli; conditions: BL21, 20 h
Summary of the method: as §6

K. pneumoniae ATCC 27799 = conditions: ATCC 27799
Protocol: as §4
(§7) The tests were in this case carried out in Mueller-Hinton medium (¼ concentrated), which is equivalent to 1% TSB.

[8] = test system: S. typhimurium ATCC 700408
Protocol: as §4, §7

[9] = test system: K. pneumoniae K6 ATCC 700603; conditions: ATCC 700603
Protocol: as §4, §7

E. coli ATCC BAA-457 = conditions: ¼ Muller-Hinton medium
Protocol: as §4, §7

K. pneumoniae 012-3131 = test system: K. pneumoniae 012-3131
Protocol: as §4, §7

P. aeruginosa 39324 = test system: P. aeruginosa 39324
Protocol: as §4, §7

[10] = test system: P. aeruginosa 10 J. Wilson
Protocol: as §4, §7

P. vulgaris ATCC 6896 = conditions: ¼ Muller-Hinton medium
Protocol: as §4, §7

E. coli D31 J. Wilson = conditions: ¼ Muller-Hinton medium
Protocol: as §4, §7

P. mirabilis ATCC 7002 = conditions: ¼ Muller-Hinton medium
Protocol: as §4, §7

S. saprophyticus 15305 = test system: S. saprophyticus 15305
Protocol: as §4, §7

[11] = test system: S. typhimurium s5 (J. Weiser); conditions: ¼ Muller-Hinton medium
Protocol: as §4, §7

[12] = test system: S. typhimurium ATCC 14028
Protocol: as §4, §7

E. coli 045-849 SENTRY = conditions: ¼ Muller-Hinton medium
Protocol: as §4, §7
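Throughout, for Half-life in 25% mouse serum: intact peptide left at successive time points measured by reversed-phase HPLC with an acetonitrile gradient in the supernatant after precipitation of serum proteins.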

Compound	half-life [2] [h]	Half-life in E. coli lysate [3] [h]	MIC E. coli DSM 10233 [4] [µg/mL]	MIC P. aeruginosa DSM 3227 [5] [µg/mL]	MIC K. pneumoniae DSM 681 [6] [µg/mL]	remaining at 4 h, 0.15 μg/mL [7] [%]	MIC M. luteus 10240 (M. luteus 10240) [µg/mL]	MIC E. coli BL21 A1 (E. coli BL21 A1) [µg/mL]	MIC K. pneumoniae ATCC 27799 (K. pneumoniae ATCC 27799) [µg/mL]	MIC S. typhimurium ATCC 700408 [8] [µg/mL]	MIC K. pneumoniae K6 ATCC 700603 [9] [µg/mL]	MIC E. coli SEQ 102ATCC # BAA-4 57 (E. coli ATCC BAA-457) [µg/mL]	MIC K. pneumoniae 012-3131 (K. pneumoniae 012-3131) [µg/mL]	MIC P. aeruginosa 39324 (P. aeruginosa 39324) [µg/mL]	MIC P. aeruginosa 10 J. Wilson [10] [µg/mL]	MIC P. vulgaris ATCC 6896 (P. vulgaris ATCC 6896)	MIC E. coli D31 J. Wilson (E. coli D31 J. Wilson) [µg/mL]	MIC P. mirabilis ATCC 7002 (P. mirabilis ATCC 7002)	MIC S. typhimurium s5 (J. Weiser) [11] [µg/mL]	MIC S. typhimurium ATCC 14028 [12] [µg/mL]	also measured
CC[C@H](C)[C@H](NC(=O)[C@H](CCCN)NC(=O)[C@H](CCCNC(=N)N)NC(=O)[C@@H]1CCCN1C(=O)[C@@H]1CCCN1C(=O)[C@H](CCCNC(=N)N)NC(=O)[C@@H]1CCCN1C(=O)[C@H](CCCNC(=N)N)NC(=O)[C@@H]1CCCN1C(=O)[C@H](CC(C)C)NC(=O)[C@H](Cc1ccc(O)cc1)NC(=O)[C@@H]1CCCN1C(=O)[C@@H]1CCCN1C(=O)[C@H](CCCCN)NC(=O)[C@H](CC(=O)O)NC(=O)[C@@H](N)C(C)C)C(=O)N[C@@H](Cc1ccc(O)cc1)C(=O)N[C@@H](CC(N)=O)C(=O)N[C@@H](CCCN)C(N)=O [compound 72] (H-VDKPPYLPRPRPPR[Orn]IYN[Orn]-NH2)	2.92	2.08	32 (≈ 13.9 µM)	>32	4 (≈ 1.73 µM)	–	–	–	–	–	–	–	–	–	–	–	–	–	–	–	Half-life in 25% mouse serum [1]: >6 h
CC[C@H](C)[C@H](NC(=O)[C@@H]1C[C@@H](O)CN1C(=O)[C@H](CCCNC(=N)N)NC(=O)[C@@H]1C[C@@H](O)CN1C(=O)[C@@H]1CCCN1C(=O)[C@H](CCCNC(=N)N)NC(=O)[C@@H]1CCCN1C(=O)[C@H](CCCNC(=N)N)NC(=O)[C@@H]1CCCN1C(=O)[C@H](CC(C)C)NC(=O)[C@H](Cc1ccc(O)cc1)NC(=O)[C@@H]1CCCN1C(=O)[C@@H]1CCCN1C(=O)[C@H](CCCCN)NC(=O)[C@H](CC(=O)O)NC(=O)[C@@H](N)C(C)C)C(=O)N[C@@H](Cc1ccc(O)cc1)C(=O)N[C@@H](CC(N)=O)C(=O)N[C@@H](CCCN)C(N)=O [compound 108] (H-VDKPPYLPRPRP[Hyp]R[Hyp]IYN[Orn]-NH2)	2.5	–	1 (≈ 0.431 µM)	16 to 32	2 (≈ 0.862 µM)	60	32 (≈ 13.8 µM)	2 (≈ 0.862 µM)	–	–	–	–	–	–	–	–	–	–	–	–	half-life ([7]; 37° C.): > 4 h
CC(C)C[C@H](NC(=O)[C@H](Cc1ccc(O)cc1)NC(=O)[C@@H]1CCCN1C(=O)[C@@H]1CCCN1C(=O)[C@H](CCCCN)NC(=O)[C@H](CC(=O)O)NC(=O)[C@@H](N)C(C)C)C(=O)N1CCC[C@H]1C(=O)N[C@@H](CCCNC(=N)N)C(=O)N1CCC[C@H]1C(=O)N[C@@H](CCCNC(=N)N)C(=O)N1CCC[C@H]1C(=O)N1CCC[C@H]1C(=O)N[C@@H](CCCNC(=N)N)C(=O)N[C@@H](CCCN)C(=O)N[C@H](C(=O)N[C@@H](Cc1ccc(O)cc1)C(=O)N[C@@H](CC(N)=O)C(=O)N[C@@H](CCCN)C(N)=O)C(C)(C)C [compound 109] (H-VDKPPYLPRPRPPR[Orn][Tle]YN[Orn]-NH2)	2.17	>4	–	–	–	90	4 (≈ 1.73 µM)	4 (≈ 1.73 µM)	–	–	–	–	–	–	–	–	–	–	–	–	–
H-GKPRPYSPRPTSHPRPIRV-OH [compound 89]	–	–	–	–	–	–	–	4	8	0.5	8	2	4	32	16	>	4	>	1	8	MIC S. saprophyticus 15305 (S. saprophyticus 15305; 15305): >64 µg/mL; MIC E. coli 045-849 SENTRY (E. coli 045-849 SENTRY): 2 µg/mL
H-GNNRPVYIPQPRPPHPRL-OH [compound 87]	–	–	–	–	–	–	–	2	4	0.13	16	1	16	64	32	>	1	>	0.5	0.5	MIC S. saprophyticus 15305 (S. saprophyticus 15305; ¼ Muller-Hinton medium): >; MIC E. coli 045-849 SENTRY (E. coli 045-849 SENTRY): 0.5 µg/mL
